For this test, the target named is T1, Human GO (Homo sapiens, UniProt Q9UJM8).
T1 construct: purchased Novus Biologicals NBP1-72412
T1 sequence (Q9UJM8 1-370): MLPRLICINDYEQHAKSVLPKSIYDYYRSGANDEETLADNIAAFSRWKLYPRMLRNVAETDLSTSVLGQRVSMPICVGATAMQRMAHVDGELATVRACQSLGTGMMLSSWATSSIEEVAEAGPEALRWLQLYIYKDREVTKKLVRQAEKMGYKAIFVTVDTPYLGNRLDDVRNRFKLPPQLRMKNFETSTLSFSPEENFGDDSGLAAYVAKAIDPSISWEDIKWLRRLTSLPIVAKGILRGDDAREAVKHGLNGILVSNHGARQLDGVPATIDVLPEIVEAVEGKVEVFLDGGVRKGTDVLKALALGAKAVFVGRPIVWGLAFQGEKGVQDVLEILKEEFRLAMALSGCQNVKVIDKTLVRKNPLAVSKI
The test is described as follows: GO enzymatic assay (coupled fluorescence/HRP assay, glycolate substrate). In kind it is biochemical. The procedure: Assay 1: GO Enzymatic Assay
GO was incubated with its substrate, glycolate, in 50 mM potassium phosphate buffer, pH 7. […] The enzyme was optimized and the kinetics was determined.
Compound inhibition was determined by adding various concentrations of inhibitors in the GO enzyme assay. The IC50 value for each measured compound was generated from sigmoidal dose-response (variable slope) curves with GraphPad Prism software (GraphPad Software, Inc., San Diego, Calif.) using the percent inhibition of GO activity relative to DMSO control.

Setting [1] is: Table 1, read-out: Range (range of IC50 values calculated from the enzymatic assays).

Where two headings read alike, the source gives them in different places.

This is an account of results in patent US11384055B2 (BIOMARIN PHARMACEUTICAL INC., priority 2017, dated 2022).

In the case of `COC(=O)c1[nH]nnc1Nc1ccc(-c2ccc(OC(F)(F)F)cc2)cc1` [Compound 65, methyl 4-((4′-(trifluoromethoxy)-[1,1′-biphenyl]-4-yl)amino)-1H-1,2,3-triazole-5-carboxylate], the concentration for half-maximal inhibition (IC50) under setting [1] is > 10000 nM. Regarding `O=C(O)CN(c1ccc(-c2ccc(Cl)cc2)cc1)c1nn[nH]c1C(=O)O` [Compound 66, 4-((carboxymethyl)(4′-chloro-[1,1′-biphenyl]-4-yl)amino)-1H-1,2,3-triazole-5-carboxylic acid 2,2,2-trifluoroacetate], the concentration for half-maximal inhibition (IC50) under setting [1] was 1000 to 10000 nM. Turning to `O=C(O)c1[nH]nnc1NCc1cccc(-c2ccc(Cl)c(Cl)c2)c1` [Compound 67, 4-(((3′,4′-dichloro-[1,1′-biphenyl]-3-yl)methyl)amino)-1H-1,2,3-triazole-5-carboxylic acid], under setting [1], the IC50 is 100 to 1000 nM. With `O=C(O)c1[nH]nnc1NCc1ccc(-c2ccc(Cl)c(Cl)c2)cc1` [Compound 68, 4-(((3′,4′-dichloro-[1,1′-biphenyl]-4-yl)methyl)amino)-1H-1,2,3-triazole-5-carboxylic acid], the half-maximal inhibitory concentration (IC50) under setting [1] is < 100 nM. Same read-out and setting: then `O=C(O)c1[nH]nnc1Nc1ccc(Cl)c(Cl)c1` [Compound 69, 4-((3,4-dichlorophenyl)amino)-1H-1,2,3-triazole-5-carboxylic acid], with < 100 nM. With `O=C(O)c1[nH]nnc1NC1CCCN(c2ccc(OC(F)(F)F)cc2)C1` (stereo not drawn) [Compound 70, 4-((1-(4-(trifluoromethoxy)phenyl)piperidin-3-yl)amino)-1H-1,2,3-triazole-5-carboxylic acid], the IC50 under setting [1] was 100 to 1000 nM. For `O=C(O)c1[nH]nnc1NC1CCN(c2ccc(Cl)cc2)CC1` [Compound 71, 4-((1-(4-chlorophenyl)piperidin-4-yl)amino)-1H-1,2,3-triazole-5-carboxylic acid 2,2,2-trifluoroacetate], the 50% inhibitory concentration (IC50) under setting [1] was 100 to 1000 nM.

For the compound `O=C(OC1CC1)c1[nH]nnc1Nc1ccc(-c2ccc(OC(F)(F)F)cc2)cc1` [Compound 72, cyclopropyl 4-((4′-(trifluoromethoxy)-[1,1′-biphenyl]-4-yl)amino)-1H-1,2,3-triazole-5-carboxylate 2,2,2-trifluoroacetate], under setting [1], the IC50 is > 10000 nM.

Regarding `O=C(O)c1[nH]nnc1NC1CCN(c2ccc(OC(F)(F)F)cc2)C1` (stereo not drawn) [Compound 73], the half-inhibitory concentration (IC50) under setting [1] was 100 to 1000 nM. Regarding `O=C(O)c1[nH]nnc1NC1CCN(c2ccc(OC(F)(F)F)cc2)CC1` [Compound 74, 4-((1-(4-(trifluoromethoxy)phenyl)piperidin-4-yl)amino)-1H-1,2,3-triazole-5-carboxylic acid], under setting [1], the concentration for half-maximal inhibition (IC50) was 100 to 1000 nM. Regarding `CN(c1ccc(-c2ccc(Cl)cc2)cc1)c1nn[nH]c1C(=O)O` [Compound 75, 4-((4′-chloro-[1,1′-biphenyl]-4-yl)(methyl)amino)-1H-1,2,3-triazole-5-carboxylic acid 2,2,2-trifluoroacetate], the IC50 under setting [1] is 100 to 1000 nM. Consider `O=C(O)c1[nH]nnc1Nc1ccc2cc(Cl)ccc2n1` [Compound 76, 4-((6-chloroquinolin-2-yl)amino)-1H-1,2,3-triazole-5-carboxylic acid], for which the IC50 under setting [1] was < 100 nM. Take `O=C(O)c1[nH]nnc1Nc1ccc2c(c1)CCCC2` [Compound 77, 4-((5,6,7,8-tetrahydronaphthalen-2-yl)amino)-1H-1,2,3-triazole-5-carboxylic acid]: the IC50 under setting [1] was 1000 to 10000 nM.

With `O=C(O)c1[nH]nnc1Nc1ccc(Cl)c2ccccc12` [Compound 78, 4-((4-chloronaphthalen-1-yl)amino)-1H-1,2,3-triazole-5-carboxylic acid], under setting [1], the IC50 was 100 to 1000 nM. Consider `O=C(O)c1[nH]nnc1Nc1ccc2ncsc2c1` [Compound 79, 4-(benzo[d]thiazol-6-ylamino)-1H-1,2,3-triazole-5-carboxylic acid], for which, under setting [1], the IC50 is 1000 to 10000 nM. `O=C(O)c1[nH]nnc1Nc1ccc(F)c(F)c1` [Compound 80, 4-((3,4-difluorophenyl)amino)-1H-1,2,3-triazole-5-carboxylic acid]: the IC50 under setting [1] was 100 to 1000 nM. As for `CC(C)(C)C(=O)OCOC(=O)c1[nH]nnc1Nc1ccc(-c2ccc(Cl)cc2)cc1` [Compound 81, (pivaloyloxy)methyl 4-((4′-chloro-[1,1′-biphenyl]-4-yl)amino)-1H-1,2,3-triazole-5-carboxylate], the half-inhibitory concentration (IC50) under setting [1] is 1000 to 10000 nM.

Regarding `O=C(O)c1[nH]nnc1Nc1ccc2cc(Cl)ccc2c1` [Compound 82, 4-((6-chloronaphthalen-2-yl)amino)-1H-1,2,3-triazole-5-carboxylic acid 2,2,2-trifluoroacetate], under setting [1], the 50% inhibitory concentration (IC50) is 100 to 1000 nM. Consider `O=C(O)c1[nH]nnc1Nc1ccc(OC(F)(F)F)cc1` [Compound 83, 4-((4-(trifluoromethoxy)phenyl)amino)-1H-1,2,3-triazole-5-carboxylic acid], for which the IC50 under setting [1] was 100 to 1000 nM. In the case of `O=C(O)c1[nH]nnc1N1CCc2ccccc2C1` [Compound 84, 4-(3,4-dihydroisoquinolin-2(1H)-yl)-1H-1,2,3-triazole-5-carboxylic acid 2,2,2-trifluoroacetate], the concentration for half-maximal inhibition (IC50) under setting [1] is 100 to 1000 nM. The same measure, in the same setting: for `O=C(O)c1[nH]nnc1Nc1ccc2cc(Br)ccc2c1` [Compound 85, 4-((6-bromonaphthalen-2-yl)amino)-1H-1,2,3-triazole-5-carboxylic acid 2,2,2-trifluoroacetate] the value was < 100 nM. With `O=C(O)c1[nH]nnc1Oc1ccc(-c2ccc(Cl)cc2)cc1` [Compound 86, 4-((4′-chloro-[1,1′-biphenyl]-4-yl)oxy)-1H-1,2,3-triazole-5-carboxylic acid], the IC50 is < 100 nM. As for `O=C(O)c1[nH]nnc1Oc1ccc(-c2ccc(OC(F)(F)F)cc2)cc1` [Compound 87, 4-((4′-(trifluoromethoxy)-[1,1′-biphenyl]-4-yl)oxy)-1H-1,2,3-triazole-5-carboxylic acid], the IC50 under setting [1] was < 100 nM.

With `O=C(O)c1[nH]nnc1Oc1ccc(Cl)c(Cl)c1` [Compound 88, 4-(3,4-dichlorophenoxy)-1H-1,2,3-triazole-5-carboxylic acid], the IC50 was < 100 nM.

Take `O=C(O)c1[nH]nnc1Oc1ccc2cc(Br)ccc2c1` [Compound 89, 4-((6-bromonaphthalen-2-yl)oxy)-1H-1,2,3-triazole-5-carboxylic acid]: the IC50 under setting [1] is < 100 nM.

In the case of `O=C(O)c1[nH]nnc1OC1CCN(c2ccc(OC(F)(F)F)cc2)C1` (stereo not drawn) [Compound 90, 4-((1-(4-(trifluoromethoxy)phenyl)pyrrolidin-3-yl)oxy)-1H-1,2,3-triazole-5-carboxylic acid], the IC50 under setting [1] was < 100 nM. The same measure, in the same setting: then `O=C(O)c1[nH]nnc1Oc1cc(Cl)cc(Cl)c1` [Compound 91, 4-(3,5-dichlorophenoxy)-1H-1,2,3-triazole-5-carboxylic acid], with < 100 nM; and `O=C(O)c1nn[nH]c1Oc1ccc(Cl)c2ccccc12` [Compound 92, 4-((4-chloronaphthalen-1-yl)oxy)-1H-1,2,3-triazole-5-carboxylic acid], with < 100 nM.

Regarding `COC(=O)c1[nH]nnc1Oc1ccc2cc(Br)ccc2c1` [Compound 93, methyl 4-((6-bromonaphthalen-2-yl)oxy)-1H-1,2,3-triazole-5-carboxylate], the IC50 under setting [1] is > 10000 nM.

With `O=C(O)c1[nH]nnc1Oc1ccc(F)c(F)c1` [Compound 94, 4-(3,4-difluorophenoxy)-1H-1,2,3-triazole-5-carboxylic acid], the IC50 is < 100 nM.

With `O=C(O)c1[nH]nnc1Oc1ccc(Cl)cc1Cl` [Compound 95, 4-(2,4-dichlorophenoxy)-1H-1,2,3-triazole-5-carboxylic acid], the concentration for half-maximal inhibition (IC50) under setting [1] is < 100 nM. For the compound `O=C(O)c1[nH]nnc1Oc1ccc(OC(F)(F)F)cc1` [Compound 96, 4-(4-(trifluoromethoxy)phenoxy)-1H-1,2,3-triazole-5-carboxylic acid], the IC50 under setting [1] is < 100 nM. For `O=C(O)c1[nH]nnc1Oc1ccc2c(c1)CCCC2` [Compound 97, 4-((5,6,7,8-tetrahydronaphthalen-2-yl)oxy)-1H-1,2,3-triazole-5-carboxylic acid], under setting [1], the IC50 is < 100 nM. Still for that read-out and setting: then `O=C(O)c1[nH]nnc1Oc1ccc2ncsc2c1` [Compound 99, 4-(benzo[d]thiazol-6-yloxy)-1H-1,2,3-triazole-5-carboxylic acid 2,2,2-trifluoroacetate], with < 100 nM; and `O=C(O)c1[nH]nnc1Oc1cc(Cl)ccc1Cl` [Compound 100, 4-(2,5-dichlorophenoxy)-1H-1,2,3-triazole-5-carboxylic acid], with < 100 nM; and `CC(=O)OCn1nnc(Oc2ccc3cc(Br)ccc3c2)c1C(=O)O` [Compound 101, 1-(acetoxymethyl)-4-((6-bromonaphthalen-2-yl)oxy)-1H-1,2,3-triazole-5-carboxylic acid], with 100 to 1000 nM. Compound `CC(C)(C)C(=O)OCn1nnc(Oc2ccc(Cl)c(Cl)c2)c1C(=O)O` [Compound 102, 4-(3,4-dichlorophenoxy)-1-((pivaloyloxy)methyl)-1H-1,2,3-triazole-5-carboxylic acid] came in with an IC50 of 100 to 1000 nM. Same read-out and setting: then `CC(C)C(=O)OCn1nnc(Oc2ccc(Cl)c(Cl)c2)c1C(=O)O` [Compound 103, 4-(3,4-dichlorophenoxy)-1-((isobutyryloxy)methyl)-1H-1,2,3-triazole-5-carboxylic acid], with 100 to 1000 nM; and `CC(=O)OCn1nnc(Oc2ccc(Cl)c(Cl)c2)c1C(=O)O` [Compound 104, 1-(acetoxymethyl)-4-(3,4-dichlorophenoxy)-1H-1,2,3-triazole-5-carboxylic acid], with 100 to 1000 nM.

One may read the IC50 as the concentration at which inhibition is half-maximal.
